Test results reported in patent US20120270812A1, “COMPOSITIONS, METHODS, AND KITS FOR DETERMINING AN ALKYL TRANSFERASE” (Duke University, priority 2009, published 2012).
Where two headings read alike, the source gives them in different places.

What was measured:
[1] = Stability during reversed-phase chromatography with 0.1% TFA in water; assay type: physicochemical; conditions: 0.1% TFA in water (pH 2) as a co-solvent
Description: A combination of radio-TLC, and normal-phase and reversed-phase HPLC was used to verify that the final product was indeed IBG and not the 3-iodobenzyl alcohol. Very little if any of 3-iodobenzyl alcohol was detected in the reaction mixture. In addition, the final product bound to AGT specifically (vide infra), which further supports its authenticity. […] This may be due to the lack of water in the reaction mixture or a rate factor may be involved. Both IBG and FBG were stable during reversed-phase chromatography involving 0.1% TFA in water (pH 2) as a co-solvent.

[2] = biological target: T1, Purified human AGT with a (His)6 tag (Homo sapiens, UniProt P16455); test: In vitro binding of radiolabeled FBG or IBG to purified AGT (TCA precipitation); conditions: for maximum observed AGT to BSA binding ratio: 10 μg AGT vs 10 μg BSA (nonspecific protein); for unlabeled compound concentration above which saturation was observed: binding to purified AGT
T1 construct: (His)6
T1 sequence (P16455 1-207): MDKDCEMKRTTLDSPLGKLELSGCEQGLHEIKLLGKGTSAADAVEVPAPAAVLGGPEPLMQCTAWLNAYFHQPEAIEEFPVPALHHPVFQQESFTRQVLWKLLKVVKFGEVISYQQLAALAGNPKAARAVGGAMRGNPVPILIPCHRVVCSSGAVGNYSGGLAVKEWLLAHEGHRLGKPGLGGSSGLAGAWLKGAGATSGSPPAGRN
Experimental: FIG. 9 is a graph showing binding of [^18F] FBG to purified AGT as a function of unlabeled FBG concentration. […] FBG was incubated for 30 minutes at 37° C., in the presence or absence of increasing amounts of unlabeled FBG, with 10 μg of AGT ([…]), or to control for nonspecific binding, 10 μg of BSA (▴) in a Tris-buffer. The protein-associated activity was determined by TCA precipitation.
IBG to purified AGT as a function of unlabeled IBG concentration. […] IBG with AGT ([…]) or BSA (▴).
Purified human AGT with a (His)6 tag was generously provided by Dr. Anthony E. Pegg of Hershey Medical Center, Pennsylvania State University. […] The incubation carried out in 0.1 ml 50 mM Tris-Cl, pH 7.5, 5 mM DTT, 0.1 mM EDTA in the presence of 10 μg calf thymus DNA. […] The precipitated proteins were collected on GF-C (Whatman) filters, which were washed extensively with 5% TCA. The results are expressed as the percentage of input activity retained on the filter. For each concentration, the assay was performed in triplicate.
To investigate whether AGT recognizes radiolabeled FBG and IBG as substrates, the efficacy of transfer of their radiolabeled benzyl groups to AGT was determined using the purified protein. […] The preparation of ^13C-and ^14C-labeled O^6-benzylguanosines has been reported by, e.g., Madelmont et al., J. Lab. Comp.

human AGT = biological target: T2, human AGT (Homo sapiens, UniProt P16455); test: Depletion (inactivation) of cellular AGT activity in CHO cells transfected with pCMV-AGT; assay type: cell-based
T2 construct: expressed in transfected cells; host or cells: CHO-K1 cells, geneticin-selected clones, plasmid pCMV-AGT
T2 sequence (P16455 1-207): T1 sequence (P16455 1-207)
Experimental: FIG. 8 is a graph showing depletion of cellular AGT activity by unlabeled 6-(4-fluoro-benzyloxy)-9H-purin-2-ylamine (O^6-4-fluorobenzylguanine (FBG)) and 6-(iodo-benzyloxy)-9H-purin-2-ylamine (O^6-iodobenzylguanine (IBG)). CHO cells transfected with pCMV-AGT were incubated with varying concentrations of IBG (▪) or FBG ([…]) for 4 hours, and the AGT activity associated with the cells was determined. The results are expressed as the percentage of the AGT activity present in cell cultures that were not treated with FBG or IBG.
CHO-K1 cells were maintained in αMEM (Gibco, Grand Island, N.Y.) containing 10% fetal bovine serum. […]
Inactivation of cellular AGT was measured by adding varying concentrations of FBG or IBG to cell cultures that had reached 80-90% confluence. […] AGT activity was measured by assaying the loss of [^3H]—O^6-methylguanine from a [^3H] methylated calf thymus DNA substrate as described by, e.g., Dolan et al., PNAS, 87:5368-5372 (1990). The results are expressed as the percentage of the AGT activity present in cell cultures that were not treated with FBG or IBG. […]
Because IBG is a new compound, its ability to deplete AGT was determined using CHO cells transfected with pCMV-AGT to express AGT. In parallel, the ability of FBG to deplete AGT under the same conditions also was measured. […]

stability during reversed-phase chromatography [1] | maximum observed AGT to BSA binding ratio [2] | unlabeled compound concentration above which saturation was observed [2] | Compound | also measured
stable |  |  | Nc1nc(OCc2cccc(I)c2)c2[nH]cnc2n1 [IBG, 6-(3-Iodo-benzyloxy)-9H-purin-2-ylamine] | IC50 [2]: ~6000 nM; IC50 (human AGT): 15 nM
stable |  |  | Nc1nc(OCc2ccc(F)cc2)c2nc[nH]c2n1 [FBG, 6-(4-fluoro-benzyloxy)-9H-purin-2-ylamine, reference compound] | IC50 ([2]; 10 μg AGT, 30 minutes at 37° C., read-out: IC50 (binding to purified AGT as a function of unlabeled compound concentration)): 5000 nM; IC50 (human AGT; CHO cells transfected with pCMV-AGT, 4 hours of drug treatment, read-out: IC50 for depleting AGT): 50 nM
 | 661 | higher than 2 μM | Nc1nc(OCc2ccc([18F])cc2)c2nc[nH]c2n1 [[^18F]FBG, 6-(4-[^18F]Fluoro-benzyloxy)-9H-purin-2-ylamine] | percent of input activity that bound to AGT, maximum ([2]; at 0.5 μM of unlabeled FBG, 10 μg AGT, 30 minutes at 37° C.): about 90%
 | 35 | higher than 3 μM | Nc1nc(OCc2cccc([131I])c2)c2nc[nH]c2n1 [[^131I]IBG, 6-(3-[^131I]Iodo-benzyloxy)-9H-purin-2-ylamine] | percent of radiolabeled compound bound to AGT ([2]; over a wide range of unlabeled IBG concentrations, 10 μg AGT, 30 minutes at 37° C.): About 60%
